{"source": "patent US12622896B2", "about": "“Antiviral compounds, compositions and methods of use” (THE UNIVERSITY OF BRITISH COLUMBIA, priority 2019, dated 2026)", "key": {"HIV-1NL4-3": {"tested_on": "HIV-1NL4-3", "test": "Preliminary anti-HIV screen: CEM-GXR reporter cells co-cultured with HIV-1NL4-3 infected cells, GFP by flow cytometry", "conditions": "for anti-HIV activity in the primary library screen: CEM-GXR cells, 1.25-10 μM, percent infected cells on day 3 (FIGS. 1A, 1B); for anti-HIV activity, rank within the analogue series: within the C-2 substituted thiophene or thiazole series", "experimental": "(§2) The anti-HIV activity of the compounds was measured by a human T-cell reporter assay based on CEM-GXR cells. These cells express GFP due to the activation of the tat-dependent promoter upon HIV-1 infection, and the level of infection was monitored using Flow cytometric analysis (Guavasoft 2.2™ software, Guava HT8, Millipore™). Antiviral activity was evaluated in an assay that measures the inhibition of HIV-1 spread in a co-culture of CEM-GXR cells containing one percent of HIV-1 infected (GFP positive) cells.\nThe reporter CEM-GXR cells were infected by co-culture with one percent HIV-1NL4-3 infected (GFP positive) cells at the start of the assay (day 0). Individual compounds from the library was added in DMSO at varying concentrations to the culture in each microplate well immediately after the inoculation by infected cells. The final library compound concentration ranged from 1.25-10 μM and the final DMSO concentration was less than 0.1%. The percent of infected cells in the culture was determined by flow cytometry on day 3 using GFP expression as a readout."}, "CEM-GXR cells": {"tested_on": "CEM-GXR cells", "test": "Guava ViaCount cytotoxicity on CEM-GXR cells", "type": "cell-based, human", "conditions": "for toxicity in the preliminary screen: at 5 μM, data not shown; for toxicity of thiophene analogues: C-2 CF3 thiophene analogues", "procedure": "The ViaCount™ assay was performed with the Guava easyCyte 8HT™ flow cytometer according to the manufacturer's manual (Guava Technologies™, Inc., Hayward, CA, USA). In brief, CEM-GXR cells were seeded in 96-well plates 80000 cells/well in the absence or presence of compound in various concentrations. Twenty-four hours later, 25 μL of cell suspension was mixed with 225 μL of Guava ViaCount™ reagent, and the mixture was incubated for 5 min at room temperature. Sample acquisition and data analysis were performed with the selection of EasyFit™ analysis feature using the ViaCount™ software module.\nThe potential cytotoxic effect of the molecules on CEM-GXR cells viability was determined by the Guava ViaCount assay. This assay differentially stains viable and nonviable cells based on their permeability to the DNA-binding dyes and uses the forward scatter (FSC) properties to distinguish free nuclei and cellular debris from intact cells to quantify cell count. CEM-GXR cells were incubated with compound at concentrations ranging between 0.5 and 100 μM for 24 h."}, "[1]": {"tested_on": "HIV-1IIIB (subtype B, X4-tropic)", "test": "Anti-HIV viral spread assay in CEM-GXR cells, wild-type subtype B", "type": "cell-based", "conditions": "Human immunodeficiency virus 1; CEM-GXR cells, viral spread, nonlinear regression; read-out: EC50 (WT Subtype B)", "from_the_text": "(§1) To validate these EC50 values, the anti-HIV drug, emtricitabine (FTC) was included in the anti-HIV assay as a positive control."}, "[2]": {"tested_on": "HIV-1 97USSN54 (subtype A, R5-tropic)", "test": "Anti-HIV viral spread assay in CEM-GXR cells, wild-type subtype A", "type": "cell-based", "conditions": "Human immunodeficiency virus 1, nonlinear regression, read-out: EC50 (WT Subtype A)", "from_the_text": "as §1"}, "PBMCs": {"tested_on": "PBMCs", "test": "PBMC viability by ViaCount assay over 11 days", "type": "cell-based, human", "conditions": "up to 11 days; for cellular toxicity in PBMCs: 0.1-10 μM range"}, "[3]": {"tested_on": "Bcl-x transcript splicing", "test": "SR-protein induced Bcl-x splicing, X2.13 minigene in 293 cells, RT-PCR", "type": "cell-based", "conditions": "10 μM"}, "[4]": {"tested_on": "PI-resistant isolate (2948)", "test": "Anti-HIV assay against PI-resistant isolate 2948", "conditions": "Human immunodeficiency virus 1, read-out: EC50 against PI-resistant isolate 2948", "experimental": "as §2"}, "HIV-1Bal strain": {"tested_on": "HIV-1Bal strain", "test": "PBMC infection assay, p24Gag ELISA day 11, HIV-1BaL", "conditions": "read-out: EC50 against HIV-1Bal in PBMC; three separate donors, one value per donor; p24 day 11; listed as GPS488", "experimental": "Peripheral blood mononuclear cells (PBMC) were obtained from healthy HIV-negative donors following written informed consent and maintained in R10+ supplemented with 50 U/mL human IL-2. […] PBMC were activated with 5 μg/ml PHA and infected 3 days later with viral stocks at a multiplicity of infection (MOI) of 0.01. At 6 h post-infection, cells were washed and re-suspended in R10+ medium supplemented with 50 U/ml of IL-2 in the presence of GPS molecules or FTC as a control compound for an additional 11 days. The accumulation of p24Gag was quantified in culture supernatants at day 11 using an enzyme-linked immunosorbent assay (ELISA; Xpress Bio™), and the increase in p24Gag values was used as the measure of viral replication."}, "[5]": {"tested_on": "Maraviroc-resistant variant of HIV-1BaL", "test": "Anti-HIV assay against Maraviroc-resistant R5 strain", "conditions": "Human immunodeficiency virus 1, read-out: EC50 against Maraviroc-resistant HIV-1 strain", "experimental": "as §2\n(§3) This Maraviroc-resistant variant derived from a R5 strain of HIV-1BaL contains five mutations within the envelope V3 loop: A19T, L20F, T22A, E25D, and I26V."}, "[6]": {"tested_on": "(N)NRTI-resistant isolate (E00443)", "test": "Anti-HIV assay against (N)NRTI-resistant isolate E00443", "conditions": "Human immunodeficiency virus 1, read-out: EC50 against isolate E00443", "experimental": "as §2"}, "[7]": {"tested_on": "clinical isolate (11845 INI)", "test": "Anti-HIV assay against INI-resistant clinical isolate 11845", "conditions": "Human immunodeficiency virus 1, read-out: EC50 against 11845 clinical isolate", "experimental": "as §2, §3"}, "HIV": {"tested_on": "HIV", "conditions": "literature; cited from earlier work"}}, "note": "Several values for one entry are separate records, joined by “and”; a condition that tells them apart may be missing. Equal entries are not always repeated.", "data": [{"compound": "O=C(Nc1nc2c(Cl)cccc2s1)c1ccc([N+](=O)[O-])s1", "note": "[5a, N-(4-Chlorobenzo[d]thiazol-2-yl)-5-nitrothiophene-2-carboxamide]", "values": [{"measurement": "anti-HIV activity in the primary library screen", "setting": "HIV-1NL4-3", "result": "significant activity"}]}, {"compound": "O=C(Nc1nc2ccc(OC(F)(F)F)cc2s1)c1ccc([N+](=O)[O-])s1", "note": "[5b, 5-Nitro-N-(6-(trifluoromethoxy)benzo[d]thiazol-2-yl)thiophene-2-carboxamide]", "values": [{"measurement": "toxicity in the preliminary screen", "setting": "CEM-GXR cells", "result": "toxicity"}, {"measurement": "anti-HIV activity in the primary library screen", "setting": "HIV-1NL4-3", "result": "significant activity"}]}, {"compound": "O=C(Nc1nc2ccc([N+](=O)[O-])cc2s1)c1ccc([N+](=O)[O-])s1", "note": "[5c, 5-Nitro-N-(6-nitrobenzo[d]thiazol-2-yl)thiophene-2-carboxamide]", "values": [{"measurement": "anti-HIV activity in the primary library screen", "setting": "HIV-1NL4-3", "result": "significant activity"}]}, {"compound": "O=C(Nc1nc2ccc(Cl)cc2s1)c1ccc([N+](=O)[O-])s1", "note": "[5d, N-(6-Chlorobenzo[d]thiazol-2-yl)-5-nitrothiophene-2-carboxamide]", "values": [{"measurement": "anti-HIV activity in the primary library screen", "setting": "HIV-1NL4-3", "result": "significant activity"}]}, {"compound": "O=C(Nc1nc2c(Cl)cc(Cl)cc2s1)c1ccc([N+](=O)[O-])s1", "note": "[5e, N-(4,6-Dichlorobenzo[d]thiazol-2-yl)-5-nitrothiophene-2-carboxamide]", "values": [{"measurement": "toxicity in the preliminary screen", "setting": "CEM-GXR cells", "result": "toxicity"}, {"measurement": "anti-HIV activity in the primary library screen", "setting": "HIV-1NL4-3", "result": "significant activity"}]}, {"compound": "O=C(Nc1nc2cc(Br)ccc2s1)c1ccc([N+](=O)[O-])s1", "note": "[5f, N-(5-Bromobenzo[d]thiazol-2-yl)-5-nitrothiophene-2-carboxamide]", "values": [{"measurement": "toxicity in the preliminary screen", "setting": "CEM-GXR cells", "result": "toxicity"}, {"measurement": "anti-HIV activity in the primary library screen", "setting": "HIV-1NL4-3", "result": "significant activity"}]}, {"compound": "O=C(Nc1nc2ccccc2s1)c1ccc([N+](=O)[O-])s1", "note": "[5g, N-(Benzo[d]thiazol-2-yl)-5-nitrothiophene-2-carboxamide]", "values": [{"measurement": "anti-HIV activity in the primary library screen", "setting": "HIV-1NL4-3", "result": "moderate to weak"}]}, {"compound": "O=C(Nc1nc2ccc(C(F)(F)F)cc2s1)c1ccc([N+](=O)[O-])s1", "note": "[5h, 5-Nitro-N-(6-(trifluoromethyl)benzo[d]thiazol-2-yl)thiophene-2-carboxamide]", "values": [{"measurement": "anti-HIV activity in the primary library screen", "setting": "HIV-1NL4-3", "result": "significant activity"}]}, {"compound": "CCOC(=O)c1ccc2nc(NC(=O)c3ccc([N+](=O)[O-])s3)sc2c1", "note": "[5i, Ethyl 2-(5-nitrothiophene-2-carboxamido)benzo[d]thiazole-6-carboxylate]", "values": [{"measurement": "anti-HIV activity in the primary library screen", "setting": "HIV-1NL4-3", "result": "moderate to weak"}]}, {"compound": "O=C(Nc1nc2ccc(F)cc2s1)c1ccc([N+](=O)[O-])s1", "note": "[5j, N-(6-Fluorobenzo[d]thiazol-2-yl)-5-nitrothiophene-2-carboxamide]", "values": [{"measurement": "anti-HIV activity in the primary library screen", "setting": "HIV-1NL4-3", "result": "moderate to weak"}]}, {"compound": "O=C(Nc1nc2ccc(Br)cc2s1)c1ccc([N+](=O)[O-])s1", "note": "[5k, N-(6-Bromobenzo[d]thiazol-2-yl)-5-nitrothiophene-2-carboxamide]", "values": [{"measurement": "anti-HIV activity in the primary library screen", "setting": "HIV-1NL4-3", "result": "moderate to weak"}]}, {"compound": "O=C(Nc1nc2c(Cl)cccc2s1)c1ccc(C(F)(F)F)s1", "note": "[8a, N-(4-Chlorobenzo[d]thiazol-2-yl)-5-(trifluoromethyl)thiophene-2-carboxamide]", "values": [{"measurement": "anti-HIV activity, rank within the analogue series", "setting": "HIV-1NL4-3", "result": "most active"}]}, {"compound": "O=C(Nc1nc2ccc([N+](=O)[O-])cc2s1)c1ccc(C(F)(F)F)s1", "note": "[8b, N-(6-nitrobenzo[d]thiazol-2-yl)-5-(trifluoromethyl)thiophene-2-carboxamide]", "values": [{"measurement": "toxicity of thiophene analogues", "setting": "CEM-GXR cells", "result": "toxicity at low micromolar concentrations"}, {"measurement": "anti-HIV activity, rank within the analogue series", "setting": "HIV-1NL4-3", "result": "most active"}]}, {"compound": "O=C(Nc1nc2ccc(C(F)(F)F)cc2s1)c1ccc(C(F)(F)F)s1", "note": "[8c, 5-(trifluoromethyl)-N-(6-(trifluoromethyl)benzo[d]thiazol-2-yl)thiophene-2-carboxamide]", "values": [{"measurement": "toxicity of thiophene analogues", "setting": "CEM-GXR cells", "result": "toxicity at low micromolar concentrations"}, {"measurement": "anti-HIV activity, rank within the analogue series", "setting": "HIV-1NL4-3", "result": "most active"}]}, {"compound": "O=C(Nc1nc2c(Cl)cccc2s1)c1cnc(C(F)(F)F)s1", "note": "[12a, N-(4-chlorobenzo[d]thiazol-2-yl)-2-(trifluoromethyl)thiazole-5-carboxamide]", "values": [{"measurement": "EC50", "setting": "[1]", "result": 1290, "unit": "nM"}, {"measurement": "EC50", "setting": "[2]", "result": 955, "unit": "nM"}, {"measurement": "cellular toxicity in PBMCs at 1 μM", "setting": "PBMCs", "result": "minimal toxicity"}, {"measurement": "cellular toxicity in PBMCs", "setting": "PBMCs", "result": "some cellular toxicity"}, {"measurement": "generation of Bcl-xL splicing variant with SRSF1 or SRSF9", "setting": "[3]", "result": "did not have any impact"}, {"measurement": "abundance of Bcl-xS splice variant with SRSF2", "setting": "[3]; 24 hour", "result": "increased abundance"}, {"measurement": "abundance of Bcl-xS splice variant with SRSF7", "setting": "[3]; 24 hour", "result": "decreased abundance"}, {"measurement": "EC50", "setting": "[4]", "result": 1170, "unit": "nM"}, {"measurement": "EC50", "setting": "HIV-1Bal strain", "result": "335 nM and 44 nM and 200 nM"}, {"measurement": "EC50", "setting": "[5]", "result": 969, "unit": "nM"}, {"measurement": "EC50", "setting": "[6]", "result": 1160, "unit": "nM"}, {"measurement": "EC50", "setting": "[7]", "result": 951, "unit": "nM"}, {"measurement": "anti-HIV activity, rank within the analogue series", "setting": "HIV-1NL4-3", "result": "most active"}]}, {"compound": "O=C(Nc1nc2ccc([N+](=O)[O-])cc2s1)c1cnc(C(F)(F)F)s1", "note": "[12b, N-(6-nitrobenzo[d]thiazol-2-yl)-2-(trifluoromethyl)thiazole-5-carboxamide]", "values": [{"measurement": "anti-HIV activity, rank within the analogue series", "setting": "HIV-1NL4-3", "result": "most active"}]}, {"compound": "[N-]=[N+]=Nc1ccc2nc(NC(=O)c3cnc(C(F)(F)F)s3)sc2c1", "note": "[12e, N-(6-azidobenzo[d]thiazol-2-yl)-2-(trifluoromethyl)thiazole-5-carboxamide]", "values": [{"measurement": "cellular toxicity in PBMCs at 1 μM", "setting": "PBMCs", "result": "minimal toxicity"}, {"measurement": "cellular toxicity in PBMCs", "setting": "PBMCs", "result": "minimal toxicity"}, {"measurement": "anti-HIV activity, rank within the analogue series", "setting": "HIV-1NL4-3", "result": "most active"}]}, {"compound": "Nc1nc(=O)n([C@@H]2CS[C@H](CO)O2)cc1F", "note": "[FTC, emtricitabine, reference compound]", "values": [{"measurement": "EC50", "setting": "[1]", "result": 33.7, "unit": "nM"}, {"measurement": "EC50", "setting": "[2]", "result": 26.3, "unit": "nM"}]}, {"compound": "O=[N+]([O-])c1ccc(C=Cc2ccc3ccccc3n2)s1", "note": "[compound 5350150, 2-(2-(5-nitro-2-thienyl)vinyl)quinolone]", "values": [{"measurement": "HIV replication", "setting": "HIV", "result": "blocked HIV replication"}]}]}
